Common to all, as to assay type: cell-based
Experiment [1] deals with MRC-5 cells. Description: 3-day MTS cell viability assay, MRC-5. The following applies: Homo sapiens, MRC5, 72 hours, normal lung fibroblast cells, Fig 1C. The procedure:
(§1) All cancer cell lines (HT-29: colorectal adenocarcinoma, HCT-116: colorectal carcinoma, A549: lung epithelial carcinoma, PC3: prostate adenocarcinoma, Jurkat: acute T-cell leukemia, BC-1: primary effusion lymphoma) and the normal human embryonal lung fibroblast cell line MRC-5 were acquired from the American Type Culture Collection (ATCC). All cell lines were cultured as recommended by the suppliers. Culture media were purchased from Gibco (Thermo Fisher Scientific) and supplemented with 10 to 20% fetal bovine serum (HyClone, GE Healthcare Life Sciences) and 20–25 μg/mL gentamicin (Gibco, Thermo Fisher Scientific). […]
(§2) Cell viability in cancer cell lines treated with compound was measured in a 3-day MTS cell proliferation assay using the CellTiter 96 AQueous Non-Radioactive Cell Proliferation Assay reagent (Promega) according to the manufacturer’s instructions. Absorbance was read at 490 nm on a SaFire II microplate reader (Tecan). CC50 values were calculated by fitting the obtained MTS cell viability data in GraphPad Prism using a 4-parameter log–based fit for inhibitors. Apoptosis induction and cell death upon compound treatment in PBMC was measured using the Alexa Fluor 488 Annexin V/Dead Cell Apoptosis Kit (Thermo Fisher Scientific), with readout on a FACSCanto II flow cytometer (BD Biosciences). […] The compounds were evaluated in duplo in two independent experiments.
(Tetrazolium assays rely on reduction of a dye to a coloured formazan, in cell work by metabolically active cells.)

For experiment [2], the system named is SF-539. Description: NCI60 5-dose screen, SF-539. The conditions noted are these: Homo sapiens, CNS cancer, Fig 1D, read-out: Log10 GI50 (SF-539) (converted). The protocol:
(§3) The screening methodology used in the NCI60 Cell 5-Doses screen is described in detail at https://dtp.cancer.gov/discovery_development/nci-60/methodology.htm. Briefly, cells are seeded in 96 well plates at an appropriate density and incubated for 1 day. After 1 day, some of the plates are processed to determine a time zero density. To the remaining plates, compounds are added over a 5-log M concentration range (1 log dilutions from 10^-4M to 10^-8M). Plates are incubated for two additional days, then fixed and stained with sulforhodamine B. Growth inhibition is calculated relative to cells without drug treatment and the time zero control. The GI50 is the concentration of a compound that causes 50% growth inhibition, relative to the no drug control.

Experiment [3] relates to SR. The experiment can be described thus: NCI60 5-dose screen, SR. The following applies: Homo sapiens, leukemia, Fig 1D, read-out: Log10 GI50 (SR) (converted). The procedure:
as §3

The subject of experiment [4] is BT-549. Description: NCI60 5-dose screen, BT-549. The conditions noted are these: Homo sapiens, breast cancer, Fig 1D, read-out: Log10 GI50 (BT-549) (converted). The procedure: as §3
In experiment [5] the test system is HT-29 cells. Description: Clonogenic assay on HT-29 cells. The conditions noted are these: Homo sapiens, 144 h; HT-29, 6 days of incubation, colonies counted; read-out: IC50 (HT-29 cell proliferation, clonogenic assay). The protocol:
All experiments were performed under standard cell culture conditions at 37°C and 5% CO2. Colorectal adenocarcinoma HT-29 cells were seeded at 300 cells/well in triplicate in six well microtiter plates in RPMI-1640 medium supplemented with 10% fetal bovine serum and 25 μg/ml gentamicin (complete medium). Twenty-four hours later, the compounds were added in complete medium in final concentrations ranging from 10 μM to 0.1 nM. Cells were allowed to grow until they formed colonies for 6 days. The colonies were fixed with 100% methanol, stained with Trypan blue 0.4% in saline and the number of colonies was counted. The number of colonies in the treated wells was normalized to the number obtained in the untreated wells. Three biological independent experiments were performed for each compound.

Experiment [6] concerns A498. Description: NCI60 5-dose screen, A498. The following applies: Homo sapiens, renal cancer, Fig 1D, read-out: Log10 GI50 (A498) (converted). The procedure: as §3
Experiment [7] concerns HOP-62. The experiment can be described thus: NCI60 5-dose screen, HOP-62. The conditions noted are these: Homo sapiens, non-small cell lung cancer, Fig 1D, read-out: Log10 GI50 (HOP-62) (converted). The procedure:
as §3

Experiment [8] has as its system HCT-116 cells. The experiment can be described thus: 3-day MTS cell viability assay, HCT-116. The conditions noted are these: Homo sapiens, 72 hours, Fig 1C. The procedure: as §1, §2
Experiment [9] deals with ACHN. The experiment can be described thus: NCI60 5-dose screen, ACHN. The following applies: Homo sapiens, renal cancer, Fig 1D, read-out: Log10 GI50 (ACHN) (converted). The protocol:
as §3

Experiment [10] relates to U251. The experiment can be described thus: NCI60 5-dose screen, U251. The following applies: Homo sapiens, U-251; CNS cancer; Fig 1D; read-out: Log10 GI50 (U251) (converted). The procedure: as §3
The subject of experiment [11] is LOX IMVI. The experiment can be described thus: NCI60 5-dose screen, LOX IMVI. The conditions noted are these: Homo sapiens, melanoma, Fig 1D, read-out: Log10 GI50 (LOX IMVI) (converted). The procedure:
as §3

For experiment [12], the system named is SN12C. The experiment can be described thus: NCI60 5-dose screen, SN12C. The conditions noted are these: Homo sapiens, renal cancer, Fig 1D, read-out: Log10 GI50 (SN12C) (converted). The protocol:
as §3

Experiment [13] relates to RPMI-8226. Description: NCI60 5-dose screen, RPMI-8226. The following applies: Homo sapiens, leukemia, Fig 1D, read-out: Log10 GI50 (RPMI-8226) (converted). The protocol:
as §3

Experiment [14] concerns CAKI-1. Description: NCI60 5-dose screen, CAKI-1. The conditions noted are these: Homo sapiens, renal cancer, Fig 1D, read-out: Log10 GI50 (CAKI-1) (converted). The procedure: as §3
In experiment [15] the test system is HCC-2998. Description: NCI60 5-dose screen, HCC-2998. The conditions noted are these: Homo sapiens, colon cancer, Fig 1D, read-out: Log10 GI50 (HCC-2998) (converted). The protocol:
as §3

Experiment [16] has as its system SF-295. The experiment can be described thus: NCI60 5-dose screen, SF-295. The following applies: Homo sapiens, CNS cancer, Fig 1D, read-out: Log10 GI50 (SF-295) (converted). The protocol:
as §3

Experiment [17] deals with SK-MEL-2. The experiment can be described thus: NCI60 5-dose screen, SK-MEL-2. The following applies: Homo sapiens, melanoma, Fig 1D, read-out: Log10 GI50 (SK-MEL-2) (converted). The protocol:
as §3

The subject of experiment [18] is MDA-MB-231/ATCC. Description: NCI60 5-dose screen, MDA-MB-231/ATCC. The following applies: Homo sapiens, breast cancer, Fig 1D, read-out: Log10 GI50 (MDA-MB-231/ATCC) (converted). The procedure:
as §3

For `Cc1ccnc(Nc2ccc([N+](=O)[O-])c(NCCN3CCOCC3)n2)c1` [Compound 4AZA2996, N^6-(4-methylpyridin-2-yl)-N^2-(2-morpholinoethyl)-3-nitropyridine-2,6-diamine], the figures for the IC50 in experiment [1], in [5] and in experiment [8] were 23.3 µM, 4 nM and 10 nM, respectively. Also, the GI50 is under 10 nM in experiment [2]; under 10 nM in experiment [3]; 19.1 nM in experiment [4]; under 10 nM in [6]; under 10 nM in experiment [7]; under 10 nM in experiment [9]. Besides, the GI50 in experiment [10] was under 10 nM; in [11] it was under 10 nM; in experiment [12], 47.9 nM; in experiment [13], 26.9 nM; in experiment [14], under 10 nM; in experiment [15] it was 17 nM. Moreover, the GI50 in [16] is under 10 nM; in experiment [17] it was 30.2 nM; in experiment [18] it was 38 nM.

Take `Cc1cc(C)cc(Nc2ccc([N+](=O)[O-])c(NCCN3CCOCC3)n2)c1` [Compound 4AZA2891, 6-(3,5-dimethylanilino)-2-(2-morpholinoethylamino)-3-nitropyridine]: the IC50 in experiment [1] was 29.6 µM; in experiment [5], 5.4 nM; in experiment [8], 17.4 nM. For the same compound, the GI50 in [2] is under 10 nM; in experiment [3] it was 17.4 nM; in experiment [4], 58.9 nM; in experiment [6], under 10 nM; in [7] it was 30.2 nM; in experiment [9], 12 nM. In addition, the GI50 in [10] is 30.9 nM; in [11] it was 11.5 nM; in experiment [12] it was 70.8 nM; in experiment [13], 36.3 nM; in experiment [14], under 10 nM; in experiment [15], 28.8 nM. The results for the GI50 in experiment [16], in experiment [17] and in experiment [18] were under 10 nM, 34.7 nM and 34.7 nM, respectively.

The values above are taken from PMC11542830, “3-nitropyridine analogues as novel microtubule-targeting agents” (PLOS ONE, 2024).
